According to patent publication US20250367134A1, “PERIPHERALIZATION OF CENTRALLY-ACTING CANNABINOID-1 RECEPTOR ANTAGONISTS BY NANOPARTICLES FOR THE TREATMENT METABOLIC RELATED CONDITIONS” (Yissum Research Development Company of the Hebrew …, priority 2022, published 2025):
Structures can show the parent of a compound that is named as a salt.

Experiments:
[1] = Chronic treatment of diet-induced obesity (DIO) mice: body weight, body composition, food intake, urine; format: in vivo; conditions: 1 mg/kg/d ip, 28 days
Excerpt: The experimental protocol used was approved by the Institutional Animal Care and Use Committee of the Hebrew University, which is an AAALAC International accredited institute. To generate diet-induced obesity (DIO; body weight>42 g), six-week-old male C57B1/6JHsd mice (Envigo, Israel) were fed either a high-fat diet (HFD; 60% of calories from fat, 20% from protein, and 20% from carbohydrates; Research Diet, D12492), or a standard diet (STD; 14% fat, 24% protein, 62% carbohydrates; NIH-31 rodent diet) for 16 weeks. […] Body-weight and food intake were measured daily. Total body fat and lean masses were determined by EchoMRI100H™ (Echo Medical Systems LLC, Houston, TX, USA). At 24 h, urine was collected one week before euthanasia using mouse metabolic cages (CCS2000 Chiller System, Hatteras Instruments, NC, USA). Mice were euthanized by cervical dislocation under anesthesia, and the kidneys, brain, liver, fat pads, spleen, lungs, and heart were removed and weighed, and samples were either snap-frozen or fixed in buffered 4% formalin. Trunk blood was collected to determine the biochemical parameters.

[2] = Multi-parameter metabolic assessment (indirect calorimetry) in DIO mice; format: in vivo; conditions: 1 mg/kg/d ip, 28 days
Method: The metabolic and activity profiles of the mice were assessed using the Promethion High-Definition Behavioral Phenotyping System (Sable Instruments, Inc., Las Vegas, NV, USA). Data acquisition and instrument control were performed using MetaScreen software version 2.2.18.0, and the obtained raw data were processed using ExpeData version 1.8.4, using an analysis script detailing all aspects of the data transformation. Mice with free access to food and water were subjected to a standard 12 h light/12 h dark cycle, which consisted of a 16 h acclimation period, followed by 24 h of sampling. Respiratory gases were measured by using the GA-3 gas analyzer (Sable Systems, Inc., Las Vegas, NV, USA), using a pull-mode, negative-pressure system. Airflow was measured and controlled by FR-8 (Sable Systems, Inc., Las Vegas, NV, USA), with a set flow rate of 2000 mL/min. Water vapor was continuously measured and its dilution effect on O2 and CO2 was mathematically compensated. The effective mass (eff.Mass) was calculated by ANCOVA analysis. The respiratory quotient (RQ) was calculated as the ratio between CO2 produced to O2 consumed, and the total energy expenditure (TEE) was calculated as VO2×(3.815+1.232×RQ), normalized to the effective body mass, and expressed as kcal/h/kg^eff.Mass. Fat oxidation (FO) was calculated as FO=1.69×VO2−1.69×VCO2 and expressed as g/d/kgeff.Mass. Ambulatory activity and position were monitored simultaneously with the collection of the calorimetry data using XYZ beam arrays with a beam spacing of 0.25 cm.

[3] = Blood and liver biochemistry and histopathology in DIO mice; format: in vivo; conditions: 1 mg/kg/d ip, 28 days
Method: Serum levels of cholesterol, triglycerides, high-density lipoprotein (HDL), low-density lipoprotein (LDL), and alanine aminotransferase (ALT) were determined by using the Cobas C-111 chemistry analyzer (Roche, Switzerland). Serum insulin and leptin levels were measured by ELISAs (Merck, Cat #EZRMI-13K and #E6082-K, respectively). Fasting blood glucose was measured using a glucometer. Liver tissues were extracted as known, and their triglyceride content was determined using the Cobas C-111 chemistry analyzer (Roche, Switzerland).
Five μm paraffin-embedded liver sections from 7 animals per group were stained with H&E staining. Liver images were captured with a Zeiss AxioCam ICc5 color camera mounted on a Zeiss Axio Scope.A1 light microscope and taken from 10 random 40× fields of each animal. Lipid staining was conducted using an Oil Red O staining kit (Cat #ab150678; Abcam) according to the manufacturer's protocol. Briefly, at a […] optimal cutting temperature (O.C.T) (Cat #4583; SciGen, Inc., Gardena, CA, USA), compound-embedded liver sections were placed in propylene glycerol, followed by an Oil Red O solution and hematoxylin staining. Stained sections were photographed as mentioned above and positive red areas were quantified in a blinded manner using Image J software with a minimum of 10 random liver sections per mouse.

[4] = Glucose tolerance (ipGTT) and insulin sensitivity tests (ipIST) in DIO mice; format: in vivo; conditions: 1 mg/kg/d ip, 28 days
Method: Mice that underwent overnight fasting were injected with glucose (1.5 g/kg, ip), followed by a tail blood collection at 0, 15, 30, 45, 60, 90, and 120 minutes. The blood glucose levels were determined using a glucometer. The following day, the mice underwent fasting for 6 h before receiving insulin (0.75 U/kg, ip; Eli Lilly); their blood glucose levels were determined at the same intervals as above. The homeostasis model assessment insulin resistance (HOMA-IR) was calculated as ([μU/mL] X fasting plasma glucose [mmol/L]/22.5). The insulin sensitivity index (ISI) was calculated as 1/(glucose×insulin)×1000, with glucose expressed as mg/dL and insulin as mU/L.

[5] = system: genes associated with fatty-acid β-oxidation (Cpta1, Acadm, Echs1, Hadh, and Acaa2); assay: CB1R antagonism in primary hepatocytes under lipotoxic conditions, qPCR; format: cell-based, mouse; conditions: 1 μM, 24 h, 0.5 mM O:P 2:1
Method: Total RNA of mouse livers or primary hepatocytes was extracted using TRIzol (Invitrogen), followed by DNase I treatment (Invitrogen), and then reverse-transcribed using an Iscript cDNA kit (Bio-Rad). Real-time PCR was conducted using iTaq Universal SYBR Green Supermix (Bio-Rad) and the CFX connect ST system (Bio-Rad). The following Mus musculus genes were detected: Cpta1, Acadm, Echs1, Hadh, and Acaa2; all genes were normalized to β-actin.
Primary mouse hepatocytes were isolated by liberase perfusion as previously described. Briefly, the liver of anesthetized mice was first perfused with calcium-free Hanks balanced salt solution supplemented with HEPES and EDTA (HBSS, Biological Industries, Beit HaEmek, Cat #02-018-1A HEPES Cat #03-025-1B), followed by perfused liberase digestion (25 μg/mL liberase in HBSS; Biological Industries, Beit HaEmek, Cat #02-015-1A with 25 mM HEPES). After digestion, the hepatocytes were released by dissociation from the lobes (centrifuged at 50×g for 2 min at 4° C.). The pellet from the first centrifugation of hepatocytes was loaded on a 90% Percoll gradient (Sigma-Aldrich; Cat #GE17-0891-01) and centrifuged at 200×g for 10 min at 4° C. […]

[6] = Biodistribution of rimonabant in HFD-fed obese mice after chronic 28-day treatment; format: in vivo; conditions: 18 hr following the last injection, 1 mg/kg ip, 28 days
Method: The NPs were suspended in 1×PBS (15-450 μg/mL), and the free drug was dissolved in 4% DMSO, 1% Tween 80, and saline (0.1-3.0 mg/mL). The mice were euthanized 1-, 4-, and 24-h post-injection. […] The mice were euthanized 18 h following the last injection. Blood was collected, and mice were perfused with 1×PBS (via the left ventricle until the effluent from the right atrium was clear of blood), and the brain, lungs, liver, kidneys, fat, and spleen were harvested.
Tissues and serum samples were processed as follows: Total proteins were precipitated with ice-cold acetone/Tris buffer (50 mM, pH 8.0). Then, the samples were homogenized in ice-cold methanol/Tris buffer (50 mM, pH 8.0, 1:1) containing AM251 10 μg/mL as an internal standard. […] Rimonabant levels in the samples were determined by liquid chromatography/tandem mass spectrometry (LC-MS/MS).
The analyses were conducted on a TSQ Quantum Access Max triple quadrupole mass spectrometer (Thermo Scientific, San Jose, CA, USA) coupled with an UHPLC system, which included a Dionex Pump and an Accela Autosampler (Thermo Scientific, San Jose, CA, USA). […] Rimonabant was detected in a positive ion mode using electron spray ionization (ESI) and the multiple reaction monitoring (MRM) mode of acquisition. […]

[7] = 10 mg/kg; cited from earlier work
[8] = 3 and 10 mg/kg; cited from earlier work
serum protein = conditions: cited from earlier work

levels of rimonabant in the brain [6]: Comparable low levels
Compound: Cc1c(C(=O)NN2CCCCC2)nn(-c2ccc(Cl)cc2Cl)c1-c1ccc(Cl)cc1 [free rimonabant, N-(piperidin-1-yl)-5-(4-chlorophenyl)-1-(2,4-dichlorophenyl)-4-methyl-1H-pyrazole-3-carboxamide hydrochloride]
body weight (overweightness) [1]: significantly reduced | fat mass (adiposity) [1]: significantly reduced | food intake [1]: without affecting | lean mass [1]: increased | animal's activity profile [2]: without affecting | fat oxidation (FO) [2]: upregulation | oxygen consumption (VO2) [2]: upregulation | total energy expenditure (TEE) [2]: upregulation | HFD-induced fatty liver (liver weight, hepatic triglyceride content, hepatocyte ballooning, fat accumulation, serum ALT levels) [3]: completely reversed | serum leptin levels [3]: significantly reduced | HOMA-IR [4]: reduced | hyperinsulinemia [4]: reduced | insulin sensitivity [4]: improved | obesity-induced glucose intolerance [4]: reversed | expression levels of genes associated with fatty oxidation [5]: significantly upregulated | depressive-like symptoms in the Forced Swim Test [7]: did not induce depressive-like symptoms | despair-like behavior in the Tail Suspension Test [8]: did not induce despair-like behavior | serum protein binding (serum protein): > 98%
